Source: patent US20250197420A1, “MACROCYCLIC COMPOUNDS, COMPOSITIONS, AND METHODS OF USING THEREOF” (Sionna Therapeutics Inc., priority 2022, published 2025)

Legend:
[1] = biological target: T1, Purified recombinant NBD1 (Homo sapiens, UniProt P13569); test: Aggregation analysis using differential static light scattering (DSLS): thermal stability of NBD1; type: binding; settings: NBD1 0.2 mg/ml; Tagg of compound well minus average Tagg of DMSO control wells
T1 construct: Purified recombinant NBD1 was produced using previously described methods; made in house
T1 sequence (P13569 423-646 limits assumed): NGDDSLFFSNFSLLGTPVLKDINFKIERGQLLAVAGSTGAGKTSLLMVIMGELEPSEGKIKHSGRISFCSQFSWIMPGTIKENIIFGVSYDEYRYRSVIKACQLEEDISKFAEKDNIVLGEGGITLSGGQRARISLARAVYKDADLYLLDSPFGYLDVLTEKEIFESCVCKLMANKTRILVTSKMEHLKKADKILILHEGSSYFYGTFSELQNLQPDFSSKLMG
Outline: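 ΔTagg is compound-well aggregation temperature minus the DMSO-control mean, each Tagg being the inflection point of light scattering measured by DSLS during a 1 °C/min ramp up to 70 °C. The protein was purified NBD1 (0.2 mg/ml) in pH 7.6 buffer containing 2 mM ATP, 5 mM MgCl2 and 1% glycerol.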

[2] = test system: Primary human bronchial epithelial cells from a ΔF508 homozygous CF donor (CF-HBE cells); test: TECC24 recording of CFTR-mediated transepithelial chloride transport, AUC fold over benchmark VX-809 @10 μM; type: cell-based; settings: 48 hours incubation, AUC of forskolin-stimulated IEQ
Outline: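 Values are the forskolin-to-inhibitor-172 AUC of equivalent Cl− current, derived from transepithelial voltage and resistance, divided by the VX-809 AUC and binned as A <3, B 3–6, C 6–20. Cells were pre-incubated with compound for 48 h at 36.5 °C; the bath (pH 7.4) received benzamil 10 μM, forskolin 10 μM, then CFTRinh-172 20 μM.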

Structure (SMILES)	DSLS (ΔTagg) [1]	TECC (test agent AUC divided by VX-809 AUC) [2]
CC(Cc1cccc(C2(C)CCCCC(C)(C)N(C)C(=O)OCc3c(c(F)cc4[nH]ccc34)Oc3ccc(F)c(c3)-c3nc2nn3C)c1)C(=O)O (stereo not drawn) [Compound 103, 3-[3-(23,29-difluoro-3,6,11,11,12-pentamethyl-13-oxo-14,25-dioxa-3,4,12,20,31-pentazapentacyclo[24.3.1.12,5.016,24.017,21]hentriaconta-1(30),2(31),4,16,18,21,23,26,28-nonaen-6-yl)phenyl]-2-methyl-propanoic acid]	C (a value greater than 10 °C and less than or equal to 25 °C is marked “C”)	A (a TECC value less than 3 is marked “A”)
CC1(c2cccc(CCC(=O)O)c2)CCCC(O)CNC(=O)CCc2c(c(F)cc3[nH]ccc23)Oc2ccc(F)c(c2)-c2ncc1[nH]2 (stereo not drawn) [Compound 106, 3-[3-(23,29-Difluoro-10-hydroxy-6-methyl-13-oxo-25-oxa-3,12,20,31-tetrazapentacyclo[24.3.1.12,5.016,24.017,21]hentriaconta-1(30),2,4,16,18,21,23,26,28-nonaen-6-yl)phenyl]propanoic acid]	C (a value greater than 10 °C and less than or equal to 25 °C is marked “C”)	B (a value between 3 and 6 is marked “B”)
CC1(c2cccc(CCC(=O)O)c2)CCCC(=O)CNC(=O)CCc2c(c(F)cc3[nH]ccc23)Oc2ccc(F)c(c2)-c2ncc1[nH]2 (stereo not drawn) [Compound 107, 3-[3-(23,29-Difluoro-6-methyl-10,13-dioxo-25-oxa-3,12,20,31-tetrazapentacyclo[24.3.1.12,5.016,24.017,21]hentriaconta-1(30),2,4,16,18,21,23,26,28-nonaen-6-yl)phenyl]propanoic acid]	C (a value greater than 10 °C and less than or equal to 25 °C is marked “C”)	B (a value between 3 and 6 is marked “B”)
CC1(c2cccc(CCC(=O)O)c2)CCCCCC(O)CNC(=O)Cc2c(c(F)cc3[nH]ccc23)Oc2ccc(F)c(c2)-c2ncc1[nH]2 (stereo not drawn) [Compound 108, 3-[3-(24,30-Difluoro-12-hydroxy-6-methyl-15-oxo-26-oxa-3,14,21,32-tetrazapentacyclo[25.3.1.12,5.017,25.018,22]dotriaconta-1(31),2,4,17,19,22,24,27,29-nonaen-6-yl)phenyl]propanoic acid]	C (a value greater than 10 °C and less than or equal to 25 °C is marked “C”)	A (a TECC value less than 3 is marked “A”)
CC1(c2cccc(CCC(=O)O)c2)CCCCCC(=O)CNC(=O)Cc2c(c(F)cc3[nH]ccc23)Oc2ccc(F)c(c2)-c2ncc1[nH]2 (stereo not drawn) [Compound 109, 3-[3-(24,30-Difluoro-6-methyl-12,15-dioxo-26-oxa-3,14,21,32-tetrazapentacyclo[25.3.1.12,5.017,25.018,22]dotriaconta-1(31),2,4,17,19,22,24,27,29-nonaen-6-yl)phenyl]propanoic acid]	C (a value greater than 10 °C and less than or equal to 25 °C is marked “C”)	B (a value between 3 and 6 is marked “B”)
CC1(c2cccc(CCC(=O)O)c2)CCCCCC(=O)NCC(O)Cc2c(c(F)cc3[nH]ccc23)Oc2ccc(F)c(c2)-c2ncc1[nH]2 (stereo not drawn) [Compound 110, 3-[3-(24,30-Difluoro-15-hydroxy-6-methyl-12-oxo-26-oxa-3,13,21,32-tetrazapentacyclo[25.3.1.12,5.017,25.018,22]dotriaconta-1(31),2,4,17,19,22,24,27,29-nonaen-6-yl)phenyl]propanoic acid]	C (a value greater than 10 °C and less than or equal to 25 °C is marked “C”)	B (a value between 3 and 6 is marked “B”)
CC1(c2cccc(CCC(=O)O)c2)CCCCCC(=O)NCC(=O)Cc2c(c(F)cc3[nH]ccc23)Oc2ccc(F)c(c2)-c2ncc1[nH]2 (stereo not drawn) [Compound 111, 3-[3-(24,30-Difluoro-6-methyl-12,15-dioxo-26-oxa-3,13,21,32-tetrazapentacyclo[25.3.1.12,5.017,25.018,22]dotriaconta-1(31),2,4,17,19,22,24,27,29-nonaen-6-yl)phenyl]propanoic acid]	C (a value greater than 10 °C and less than or equal to 25 °C is marked “C”)	C (a value between 6 and 20 is marked “C”)
CN1CC(O)CCCCCC(C)(c2cccc(CCC(=O)O)c2)c2cnc([nH]2)-c2cc(ccc2F)Oc2c(F)cc3[nH]ccc3c2CC1=O (stereo not drawn) [Compound 112, 3-[3-(24,30-Difluoro-12-hydroxy-6,14-dimethyl-15-oxo-26-oxa-3,14,21,32-tetrazapentacyclo[25.3.1.12,5.017,25.018,22]dotriaconta-1(30),2,4,17(25),18(22),19,23,27(31),28-nonaen-6-yl)phenyl]propanoic acid]	C (a value greater than 10 °C and less than or equal to 25 °C is marked “C”)	B (a value between 3 and 6 is marked “B”)
CN1CC(=O)CCCCCC(C)(c2cccc(CCC(=O)O)c2)c2cnc([nH]2)-c2cc(ccc2F)Oc2c(F)cc3[nH]ccc3c2CC1=O (stereo not drawn) [Compound 113, 3-[3-(24,30-Difluoro-6,14-dimethyl-12,15-dioxo-26-oxa-3,14,21,32-tetrazapentacyclo[25.3.1.12,5.017,25.018,22]dotriaconta-1(30),2,4,17(25),18(22),19,23,27(31),28-nonaen-6-yl)phenyl]propanoic acid]	C (a value greater than 10 °C and less than or equal to 25 °C is marked “C”)	A (a TECC value less than 3 is marked “A”)
CC(Cc1cccc(C2(C)CCCCS(=O)(=O)NC(=O)CCc3c(c(F)cc4[nH]ccc34)Oc3ccc(F)c(c3)-c3nc2nn3C)c1)C(=O)O (stereo not drawn) [Compound 114, 3-[3-(23,29-Difluoro-3,6-dimethyl-11,11,13-trioxo-25-oxa-11λ6-thia-3,4,12,20,31-pentazapentacyclo[24.3.1.12,5.016,24.017,21]hentriaconta-1(30),2(31),4,16,18,21,23,26,28-nonaen-6-yl)phenyl]-2-methyl-propanoic acid]	C (a value greater than 10 °C and less than or equal to 25 °C is marked “C”)	A (a TECC value less than 3 is marked “A”)
Cn1nc2nc1-c1cc(ccc1F)Oc1c(F)cc3[nH]ccc3c1CCC(=O)NS(=O)(=O)CCCCC2(C)c1ccccc1 (stereo not drawn) [Compound 115]	C (a value greater than 10 °C and less than or equal to 25 °C is marked “C”)	A (a TECC value less than 3 is marked “A”)
C[C@@H](Cc1cccc(C2(C)CCCC(C)(C)NS(=O)(=O)CCc3c(c(F)cc4[nH]ccc34)Oc3ccc(F)c(c3)-c3nc2nn3C)c1)C(=O)O (stereo partly drawn) [Compound 116, (2S)-3-[3-(22,28-difluoro-3,6,10,10-tetramethyl-12,12-dioxo-24-oxa-12λ6-thia-3,4,11,19,30-pentazapentacyclo[23.3.1.12,5.015,23.016,20]triaconta-1(29),2(30),4,15,17,20,22,25,27-nonaen-6-yl)phenyl]-2-methyl-propanoic acid]	C (a value greater than 10 °C and less than or equal to 25 °C is marked “C”)	B (a value between 3 and 6 is marked “B”)
C[C@@H](Cc1cccc([C@@]2(C)CCCC(C)(C)CN(C)C(=O)CCc3c(c(F)cc4[nH]ccc34)Oc3ccnc(c3)-c3nc2nn3C)c1)C(=O)O [Compound 118, (2S)-3-[3-[(6R)-23-fluoro-3,6,10,10,12-pentamethyl-13-oxo-25-oxa-3,4,12,20,29,31-hexazapentacyclo[24.3.1.12,5.016,24.017,21]hentriaconta-1(30),2(31),4,16,18,21,23,26,28-nonaen-6-yl]phenyl]-2-methyl-propanoic acid]	C (a value greater than 10 °C and less than or equal to 25 °C is marked “C”)	B (a value between 3 and 6 is marked “B”)
C[C@H](Cc1cccc([C@@]2(C)CCCC(C)(C)CN(C)C(=O)CCc3c(c(F)cc4[nH]ccc34)Oc3ccnc(c3)-c3nc2nn3C)c1)C(=O)O [Compound 119, (2R)-3-[3-[(6R)-23-fluoro-3,6,10,10,12-pentamethyl-13-oxo-25-oxa-3,4,12,20,29,31-hexazapentacyclo[24.3.1.12,5.016,24.017,21]hentriaconta-1(30),2(31),4,16,18,21,23,26,28-nonaen-6-yl]phenyl]-2-methyl-propanoic acid]	B (a value above 5 °C and less than or equal to 10 °C is marked “B”)	B (a value between 3 and 6 is marked “B”)
CN1CC(C)(C)CCC[C@](C)(c2cccc(CC(C)(C)C(=O)O)c2)c2nc(n(C)n2)-c2cc(ccn2)Oc2c(F)cc3[nH]ccc3c2CCC1=O [Compound 120, 3-[3-[(6R)-23-fluoro-3,6,10,10,12-pentamethyl-13-oxo-25-oxa-3,4,12,20,29,31-hexazapentacyclo[24.3.1.12,5.016,24.017,21]hentriaconta-1(30),2(31),4,16,18,21,23,26,28-nonaen-6-yl]phenyl]-2,2-dimethyl-propanoic acid]	B (a value above 5 °C and less than or equal to 10 °C is marked “B”)	A (a TECC value less than 3 is marked “A”)
